In US10317409B2, “Glycosylation site-specific antibodies and anti-cancer compounds” (Detroit R&D, Inc., priority 2013, dated 2019):
“Also recorded” adds a separate entry of the source.

Key:
[1] = tested on: Thr-58-O-GlcNAcylated c-myc in PANC-1 cells; assay: Thr-58-O-GlcNAcylated c-myc expression in PANC-1 cells; format: cell-based; details: PANC-1, after ketoconazole treatment
PANC1 cells = assay: Cell proliferation assay (MTT); format: cell-based; details: PANC1, same treatments, 72 hr
Experimental: (§1) Cell proliferation assays were carried out after seeding 3,000-5,000 cells in a 96-well plate with and without treatment of 50 μM ketoconazole dissolved in DMSO (final concentration, 1%) for 72 hr (FIG. 8, Panel A). The cell number was counted after staining the cells with 3-(4,5-dimethylthiazol-2-yl)2,5-diphenyl-tetrazolium bromide (MTT).

[2] = tested on: Mia Paca-2 pancreatic cancer cells; assay: Cell proliferation assay (MTT); format: cell-based; details: Homo sapiens, Mia Paca-2, 50 μM for 72 hr
Experimental: as §1

A549 lung cancer cells = assay: Cell proliferation assay (MTT); format: cell-based; details: Homo sapiens, A549, 50 μM for 72 hr
Experimental: as §1

H1437 lung cancer cells = assay: Cell proliferation assay (MTT); format: cell-based; details: Homo sapiens, NCI-H1437, H1437, 50 μM for 72 hr
Experimental: as §1

MCF-7 and MCF10A cells = assay: Lactate dehydrogenase (LDH) cytotoxicity assay; format: cell-based; details: 2 mM, 4 hr, LDH release
Experimental: Increased O-GlcNAcylated c-myc levels in MCF-7 cells induced cell death. MCF-7 tumor cell death after 2 mM ketoconazole treatment was compared with MCF10A normal cell death by LDH cytotoxicity assay. After treatment of cells for 4 hr, extracellular media and Triton X-100 solubilized cells were obtained and oxidation of NADH to NAD+ in both fractions was monitored for 2 min at a 340 nm to obtain total (media+cells) LDH release.

[3] = tested on: Mia Paca-2 pancreatic cancer cells; assay: Wound healing assay (cell migration); format: cell-based; details: Mia Paca-2, 100 μM
Experimental: (§2) Wound healing assays were also carried out to verify inhibition of cell migration after ketoconazole treatment.

[4] = tested on: PANC1 pancreatic cancer cells; assay: Wound healing assay (cell migration); format: cell-based; details: PANC1, 100 μM
Experimental: as §2

[5] = tested on: unmodified c-myc in MCF-7 cells; assay: Western blot of unmodified c-myc in MCF-7 cells; format: cell-based; details: MCF-7, 4 hr, 2 mM, antibody Peptide #2-N
Experimental: (§3) Western blot analysis was carried out with 10% gel electrophoresis using nuclear lysates obtained from MCF-7 cells with antibodies for O-GlcNAcylated c-myc (Peptide #2-0). […] There was no increase in unmodified c-myc protein after ketoconazole treatment as verified with antibodies for unmodified c-myc (Peptide #2-N) by Western blot analysis.

[6] = tested on: MCF10CA1A breast cancer cells; assay: QCM ECMatrix cell invasion assay; format: cell-based; details: 100 μM, 72 hr
Experimental: (§4) Cell invasiveness of SW480 and HT29 human colon adenocarcinoma cells and MCF10CA1A breast cancer cells with and without 72 hr treatment with 100 μM ketoconazole was studied in 24-well plates using the QCM ECMatrix cell invasion assay kit (EMD Millipore).

[7] = tested on: O-GlcNAcylated c-myc in MCF-7 cells; assay: Western blot of O-GlcNAcylated c-myc levels in MCF-7 cells; format: cell-based; details: for O-GlcNAcylated c-myc level: MCF-7, 4 hr
Experimental: MCF-7 breast cancer cells were treated for 24 hr with 1% DMSO, with an O-GlcNAcase inhibitor, streptozotocin (STZ), with N6-methyladenosine 5′-monophosphate (an O-GlcNAcase inhibitor discovered through by screening with the pseudofluorescent substrate 4-methylumbelliferol (4-MU)-GlcNAc (7)) or with media (control) (FIG. 5).
(§5) O-GlcNAcase inhibitors, which increased O-GlcNAcylation levels of proteins by preventing cleavage of an O-GlcNAc moiety of Ser or Thr residues, were identified using the antibodies of the present invention. MCF-7 breast cancer cells (FIG. 6. Panel A, Lanes 1-4) and MCF10A normal breast cells (FIG. 6. Panel A, Lanes 5-8) were treated for 4 hr with 1% DMSO (FIG. 6, Panel A, Lanes 1 and 5), the O-GlcNAcase inhibitors acetazolamide (FIG. 6, Panel A, Lanes 2 and 6) and N6-methyladenosine 5′-monophosphate (FIG. 6, Panel A, Lanes […] and 7) or media (control) (FIG. 6, Panel A, Lanes 4 and 8). Western blot analysis (8-16% gel) was carried out with cell lysates (20 μg/lane) using antibodies for O-GlcNAcylated c-myc (Peptide #1-G, 5,000-fold diluted).
as §3
MCF-7 cells were treated for 4 hr with 1% DMSO (negative control) or 2 mM ketoconazole in DMSO and an O-GlcNAcylated c-myc band was detected using a second antibody for O-GlcNAcylated c-myc (Peptide #1-G).

HT29 colon cancer cells [8] = assay: Wound healing assay (cell migration); format: cell-based, human; details: HT29, 100 μM
Experimental: as §2

SW480 colon cancer cells [9] = assay: Wound healing assay (cell migration); format: cell-based, human; details: SW480, 100 μM
Experimental: as §2

HT29 colon cancer cells [10] = assay: Cell proliferation assay (MTT); format: cell-based, human
Excerpt: (§6) […] The cell number was counted after staining the cells with 3-(4,5-dimethylthiazol-2-yl)2,5-diphenyl-tetrazolium bromide (MTT).

SW480 colon cancer cells [11] = assay: Cell proliferation assay (MTT); format: cell-based, human
Excerpt: as §6

[12] = tested on: MCF-7 breast cancer cells; assay: Cell proliferation; format: cell-based
Experimental: as §1

HT29 colon cancer cells [13] = assay: QCM ECMatrix cell invasion assay; format: cell-based, human; details: HT29, 100 μM, 72 hr
Experimental: as §4

SW480 colon cancer cells [14] = assay: QCM ECMatrix cell invasion assay; format: cell-based, human; details: SW480, 100 μM, 72 hr
Experimental: as §4

[15] = tested on: O-GlcNAcylated c-myc in MCF10A cells; assay: Western blot of O-GlcNAcylated c-myc levels in MCF10A cells; format: cell-based; details: 4 hr treatment, cell lysates, FIG. 6A
Experimental: as §5

[16] = tested on: O-GlcNAcylated p53 in MCF-7 cells; assay: Western blot of O-GlcNAcylated p53 levels in MCF-7 cells; format: cell-based; details: MCF-7, 24 hr, 2 mM, cytosol-containing supernatants, FIG. 7B
Experimental: MCF-7 cells were grown for 24 hr with treatment of 1% DMSO (negative control) or 2 mM STZ or acetazolamide dissolved in DMSO or 2 mM N6-methyladenosine 5′-monophosphate dissolved in media. The cells were harvested and cytosol-containing supernatants were obtained.

[17] = 2 mM, nuclear lysates, antibody Peptide #2-G, FIG. 6B
[18] = MCF-7, 24 hr treatment, 2 mM, nuclear lysates, FIG. 5
[19] = MCF-7, 4 hr treatment, cell lysates, FIG. 6A

CC(=O)N1CCN(c2ccc(OCC3COC(Cn4ccnc4)(c4ccc(Cl)cc4Cl)O3)cc2)CC1 (stereo not shown) [ketoconazole]
Thr-58-O-GlcNAcylated c-myc expression [1]: failed to increase | inhibition of cell proliferation (PANC1 cells): failed to inhibit; also recorded: no significant differences | inhibition at 50 µM [2]: 60.2% | inhibition at 50 µM (A549 lung cancer cells): 51.3% | inhibition at 50 µM (H1437 lung cancer cells): 44.9% | increased cell death in MCF-7 cells higher than in MCF10A cells (MCF-7 and MCF10A cells): 84% | inhibition at 100 µM ([3]; Homo sapiens, 24 and 48 hr, (36/46 × 100) and (43/55 × 100)): 78% | % cells migrated toward a scratched field ([3]; 0 hr): 0% | % cells migrated toward a scratched field ([3]; 24 hr): 11.6% | % cells migrated toward a scratched field ([3]; 24 hr, listed as Ketoconazole): 10% | % cells migrated toward a scratched field ([3]; 48 hr): 12% | inhibition of cell migration [4]: no significant differences | % cells migrated toward a scratched field ([4]; 0 hr): 0% | % cells migrated toward a scratched field ([4]; 24 hr): 6% | % cells migrated toward a scratched field ([4]; 48 hr): 11% | unmodified c-myc protein [5]: no increase | cell invasiveness [6]: partially inhibited | cell invasiveness ([6]; listed as Ketoconazole): slight loss of cell invasiveness | O-GlcNAcylated c-myc level [7, 17]: dramatically increased | O-GlcNAcylated c-myc level ([7]; 2 mM, second antibody Peptide #1-G, FIG. 6C): dramatically increased | Percent of cells migrated toward a scratched field (HT29 colon cancer cells [8]; 0 hr): 0% | Percent of cells migrated toward a scratched field (HT29 colon cancer cells [8]; 24 hr): 8% | Percent of cells migrated toward a scratched field (SW480 colon cancer cells [9]; 0 hr): 0% | Percent of cells migrated toward a scratched field (SW480 colon cancer cells [9]; 24 hr): 27% | cell proliferation (HT29 colon cancer cells [10]; HT29, 100 μM): inhibited | inhibition at 50 µM (HT29 colon cancer cells [10]; Homo sapiens, HT-29, HT29, 50 μM for 72 hr, MTT): 67.4% | inhibition at 50 µM (SW480 colon cancer cells [11]; Homo sapiens, SW480, 50 μM for 72 hr, MTT): 63.3% | cell proliferation (SW480 colon cancer cells [11]; SW480, 100 μM): inhibited | proliferation of MCF-7 breast cancer cells [12]: inhibited | cell invasiveness (HT29 colon cancer cells [13]): loss of cell invasiveness | inhibition at 100 µM (HT29 colon cancer cells [13]; Homo sapiens, HT-29, read-out: inhibition of migration in cell invasion assay): 100% | inhibition at 100 µM (SW480 colon cancer cells [14]; Homo sapiens, read-out: inhibition of migration in cell invasion assay): 100% | cell invasiveness (SW480 colon cancer cells [14]): loss of cell invasiveness

CN(N=O)C(=O)N[C@H]1C(O)O[C@H](CO)[C@@H](O)[C@@H]1O (mixture of isomers) [STZ, streptozotocin]
O-GlcNAcylated c-myc levels [7, 18]: failed to increase

CNc1ncnc2c1ncn2[C@@H]1O[C@H](COP(=O)(O)O)[C@@H](O)[C@H]1O [N6-methyladenosine 5′-monophosphate]
O-GlcNAcylated c-myc levels [15]: failed to increase | O-GlcNAcylated c-myc levels [7, 19]: failed to increase | O-GlcNAcylated c-myc levels [7, 18]: failed to increase | Levels of O-GlcNAcylated p53 [16]: increased

O=C1CC2(CCCC2)CC(=O)N1CCCCN1CCN(c2ncccn2)CC1 [buspirone]
O-GlcNAcylated c-myc level [7, 17]: did not increase

CC(=O)Nc1nnc(S(N)(=O)=O)s1 [acetazolamide]
O-GlcNAcylated c-myc levels [15]: failed to increase | O-GlcNAcylated c-myc levels [7, 19]: failed to increase | O-GlcNAcylated c-myc levels in nucleus ([7]; MCF-7, 24 hr, 2 mM, data not shown): did not increase | Levels of O-GlcNAcylated p53 [16]: increased
